Results on two compounds are retold here after ChEMBL document CHEMBL3853264 (Medchemcomm, 2016).

Series [1] is described as follows: Drug level in human liver microsomes treated with 4-(3-chloro-4-(hydroxymethyl)phenoxy)-3-cyano-N-(5-fluoropyridin-2-yl)benzenesulfonamide. Type of series: ADME. Background: Liver microsomes are a subcellular fraction often used to study metabolism.
Series [2] in a line: Drug level in human hepatocytes treated with 4-(3-chloro-4-(hydroxymethyl)phenoxy)-3-cyano-N-(5-fluoropyridin-2-yl)benzenesulfonamide. Type of series: ADME, cell-based, Hepatocyte.
A short description of series [3]: Plasma clearance in dog at 0.1 mg/kg, iv and 3 mg/kg, po. Type of series: ADME, organism-based, Canis lupus familiaris.
Series [4] can be described thus: Half life in dog at 0.1 mg/kg, iv and 3 mg/kg, po. It is filed as ADME, organism-based, Canis lupus familiaris. The settings on record: in vivo.
A short description of series [5]: Unbound clearance in rat at 1 mg/kg, iv and 3 mg/kg, po. It is filed as ADME, organism-based. To be noted: in vivo.
The nature of series [6]: Volume of distribution at steady state in rat at 1 mg/kg, iv and 3 mg/kg, po. Type of series: ADME, organism-based. To be noted: in vivo, read-out: Vdss.
A short description of series [7]: Oral bioavailability in rat at 3 mg/kg. The settings on record: in vivo. Type of series: ADME, organism-based.
The nature of series [8]: Unbound clearance in dog at 0.1 mg/kg, iv and 3 mg/kg, po. It is filed as ADME, organism-based, Canis lupus familiaris. To be noted: in vivo.
Series [9] is described as follows: Volume of distribution at steady state in dog at 0.1 mg/kg, iv and 3 mg/kg, po. It is filed as ADME, organism-based, Canis lupus familiaris. To be noted: in vivo, read-out: Vdss.
Series [10] in a line: Oral bioavailability in dog at 3 mg/kg. To be noted: in vivo. It is filed as ADME, organism-based, Canis lupus familiaris.
Series [11] can be described thus: Unbound average plasma concentration in human at >450 mg, bid. Type of series: ADME.
The species entered for series [12] is Homo sapiens. Put plainly: Reduction in serum ureate in human at >450 mg, bid. Type of series: functional. More on the design: scale not given: the % may be the effect or the level left.
The nature of series [13]: Lipophilicity, log D of the compound. Type of series: physicochemical. The settings on record: octanol/water.

On to `N#Cc1cc(S(=O)(=O)Nc2ccc(F)cn2)ccc1Oc1ccc(C(=O)O)c(Cl)c1`, for which the Drug metabolism result in series [1] and in series [2] was “Metabolite_Detected” throughout.

`Nc1[nH]ncc1-c1cc(Cl)ccc1Oc1cc(F)c(S(=O)(=O)Nc2cscn2)cc1Cl` [PF-05089771]: the clearance in series [3] is 0.288 L/h/kg. Besides, in [4], the half-life is 1.4 h. For the same compound, the CL free is 26.8 L/h/kg in series [5] and 38.5 L/h/kg in series [8]. For the same compound, the values for the Vd in series [6] and in [9] were 1.3 L/kg and 0.31 L/kg, respectively. Moreover, the figures for the bioavailability in [7] and in series [10] were 27% and 35%, respectively. Besides, the “Cp(f)” value in series [11] came to 0.06 µM. Also, the Activity in series [12] worked out at 50%. In series [13], this compound gave a logD of 2.6.

As a reminder, the half-life is how long it takes for the measured level to halve. As usually defined, the bioavailability is dose-corrected exposure relative to a reference, in per cent. Broadly, the logD is the decadic logarithm of the distribution of all forms, ionised or not, between an organic phase and buffer at a given pH.
